Measurements from US12365850B2, “Water-miscible functional fluid, undiluted stock of water-miscible functional fluid, sterilizer for water-miscible functional fluid, and method of sterilizing water-miscible function fluid” (priority 2020, dated 2025).
Read-outs that look alike come from different tables or passages of the source. One block for each molecule: values may come before it.

How the values were obtained:
[1] = pH drop suppression test of water-miscible cutting fluid (circulation and blue LED irradiation); assay type: physicochemical
bacteria = assay: Photosterilization test of neutral photosensitizers (bacterial count after light irradiation); assay type: cell-based
[2] = 100%×(pH at preparation−pH after continuing use)/(pH at preparation), riboflavin cutting fluid with the named antioxidant
[3] = class by pH change rate, riboflavin cutting fluid with the named antioxidant
[4] = riboflavin cutting fluid containing the named antioxidant, one month, Table 3 (same values as Table 2)
[5] = wavelength 450 nm, irradiance 100 μW/cm2, light intensity 10 J/cm2, photosensitizer 50 ppm (Lumichrome 20 ppm)
[6] = wavelength 450 nm, irradiance 100 μW/cm2, light intensity 30 J/cm2, photosensitizer 50 ppm (Lumichrome 20 ppm)
[7] = wavelength 450 nm, irradiance 100 μW/cm2, light intensity 50 J/cm2, photosensitizer 50 ppm (Lumichrome 20 ppm)
[8] = wavelength 450 nm, irradiance 100 μW/cm2, light intensity 100 J/cm2, photosensitizer 50 ppm (Lumichrome 20 ppm)
[9] = wavelength 450 nm, irradiance 100 μW/cm2, light intensity 200 J/cm2, photosensitizer 50 ppm (Lumichrome 20 ppm)
[10] = wavelength 450 nm, irradiance 100 μW/cm2, light intensity 400 J/cm2, photosensitizer 50 ppm (Lumichrome 20 ppm)

pH change rate (%) [1, 2]: 8.1% | Evaluation of pH drop supression [1, 3]: A (pH change rate of 15% or lower) | pH change [1, 4]: 0.7
Compound: CC(O)CNCC(C)O (stereo not shown) [Di-isopropanolamine]

pH change rate (%) [1, 2]: 8.1% | Evaluation of pH drop supression [1, 3]: A (pH change rate of 15% or lower) | pH change [1, 4]: 0.7
Compound: OCCNCCO [Diethanolamine]

pH change rate (%) [1, 2]: 5.8% | Evaluation of pH drop supression [1, 3]: A (pH change rate of 15% or lower) | pH change [1, 4]: 0.5
Compound: CC(C)(C)c1cc(CCC(=O)OCC(COC(=O)CCc2cc(C(C)(C)C)c(O)c(C(C)(C)C)c2)(COC(=O)CCc2cc(C(C)(C)C)c(O)c(C(C)(C)C)c2)COC(=O)CCc2cc(C(C)(C)C)c(O)c(C(C)(C)C)c2)cc(C(C)(C)C)c1O [Irganox 1010]

pH change rate (%) [1, 2]: 9.3% | Evaluation of pH drop supression [1, 3]: A (pH change rate of 15% or lower) | pH change [1, 4]: 0.8
Compound: CC(C)(C)c1cc(Cn2c(=O)n(Cc3cc(C(C)(C)C)c(O)c(C(C)(C)C)c3)c(=O)n(Cc3cc(C(C)(C)C)c(O)c(C(C)(C)C)c3)c2=O)cc(C(C)(C)C)c1O [Irganox 3114]

pH change rate (%) [1, 2]: 17.4% | pH change [1, 4]: 1.5
Compound: NCCO [Monoethanol amine]
Evaluation of pH drop supression [1, 3]: B (pH change rate higher than 15% and at most 20%)

pH change rate (%) [1, 2]: 19.8% | pH change [1, 4]: 1.7
Compound: CC(O)CN (stereo not shown) [Monoisopropanolamine]
Evaluation of pH drop supression [1, 3]: B (pH change rate higher than 15% and at most 20%)

pH change rate (%) [1, 2]: 4.7% | Evaluation of pH drop supression [1, 3]: A (pH change rate of 15% or lower) | pH change [1, 4]: 0.4
Compound: CCC(C)Nc1ccc(NC(C)CC)cc1 (stereo not shown) [N,N′-Di-sec-butyl-1,4-phenylenediamine]

pH change rate (%) [1, 2]: 24.4% | pH change [1, 4]: 2.1
Compound: O=C1O[C@H]([C@@H](O)CO)C([O-])=C1O.[Na+] [Sodium ascorbate]
Evaluation of pH drop supression [1, 3]: C (pH change rate higher than 20% and at most 30%)

The next lines start with the molecule.

Compound: NCC1CCCC(CN)C1 (stereo not shown) [1,3-Bis(aminomethyl)cyclohexane]
pH change rate (%) [1, 2]: 16.3% | Evaluation of pH drop supression [1, 3]: B (pH change rate higher than 15% and at most 20%) | pH change [1, 4]: 1.4

Compound: Sc1nc2ccccc2[nH]1 [2-mercaptobenzimidazole]
Evaluation of pH drop supression [1]: C (key: A: pH change rate of 15% or lower; B: pH change rate higher than 15% and at most 20%; C: pH change rate higher than 20% and at most 30%; D: pH change rate higher than 30%) | pH change [1]: 2.4 | pH change rate (%) [1]: 27.9%

Compound: Cc1cc(C(C)(C)C)c(O)c(C(C)(C)C)c1 [BHT, butylated hydroxytoluene]
pH change rate (%) [1, 2]: 11.6% | Evaluation of pH drop supression [1, 3]: A (pH change rate of 15% or lower) | pH change [1, 4]: 1

Compound: Cc1c(C)c2c(c(C)c1O)CC[C@@](C)(CCC[C@H](C)CCC[C@H](C)CCCC(C)C)O2 [D-α-tocopherol]
pH change rate (%) [1, 2]: 7.0% | Evaluation of pH drop supression [1, 3]: A (pH change rate of 15% or lower) | pH change [1, 4]: 0.6

Compound: O=C([O-])CN(CCN(CC(=O)[O-])CC(=O)O)CC(=O)O.[Na+].[Na+] [Disodium edetate]
Evaluation of pH drop supression [1]: A (key: A: pH change rate of 15% or lower; B: pH change rate higher than 15% and at most 20%; C: pH change rate higher than 20% and at most 30%; D: pH change rate higher than 30%) | pH change [1]: 0.8 | pH change rate (%) [1]: 9.3%

Compound: Cc1cc2nc3c(=O)[nH]c(=O)nc-3n(C[C@H](O)[C@H](O)[C@H](O)CO)c2cc1C [Example 1, Riboflavin]
change in the bacterial count due to the light irradiation (bacteria; result in words): a decrease in the bacterial count was found | Bacterial count (bacteria; wavelength 275 nm, irradiance 100 μW/cm2, light intensity 10 J/cm2, photosensitizer 50 ppm): ++ (bacterial count was 1.0×10^6 CFU/ml to 1.4×10^7 CFU/ml) | Bacterial count (bacteria; wavelength 275 nm, irradiance 100 μW/cm2, light intensity 30 J/cm2, photosensitizer 50 ppm): ++ (bacterial count was 1.0×10^6 CFU/ml to 1.4×10^7 CFU/ml) | Bacterial count (bacteria; wavelength 275 nm, irradiance 100 μW/cm2, light intensity 50 J/cm2, photosensitizer 50 ppm): + (bacterial count was at least 1.0×10^2 CFU/ml and less than 1.0×10^6 CFU/ml) | Bacterial count (bacteria; wavelength 275 nm, irradiance 100 μW/cm2, light intensity 100 J/cm2, photosensitizer 50 ppm): + (bacterial count was at least 1.0×10^2 CFU/ml and less than 1.0×10^6 CFU/ml) | Bacterial count (bacteria; wavelength 275 nm, irradiance 100 μW/cm2, light intensity 200 J/cm2, photosensitizer 50 ppm): + (bacterial count was at least 1.0×10^2 CFU/ml and less than 1.0×10^6 CFU/ml) | Bacterial count (bacteria; wavelength 275 nm, irradiance 100 μW/cm2, light intensity 400 J/cm2, photosensitizer 50 ppm): − (bacterial count was at least 0 and less than 1.0×10^2 CFU/mil) | Bacterial count (bacteria; wavelength 380 nm, irradiance 1200 μW/cm2, light intensity 10 J/cm2, photosensitizer 50 ppm): ++ (bacterial count was 1.0×10^6 CFU/ml to 1.4×10^7 CFU/ml) | Bacterial count (bacteria; wavelength 380 nm, irradiance 1200 μW/cm2, light intensity 30 J/cm2, photosensitizer 50 ppm): ++ (bacterial count was 1.0×10^6 CFU/ml to 1.4×10^7 CFU/ml) | Bacterial count (bacteria; wavelength 380 nm, irradiance 1200 μW/cm2, light intensity 50 J/cm2, photosensitizer 50 ppm): ++ (bacterial count was 1.0×10^6 CFU/ml to 1.4×10^7 CFU/ml) | Bacterial count (bacteria; wavelength 380 nm, irradiance 1200 μW/cm2, light intensity 100 J/cm2, photosensitizer 50 ppm): + (bacterial count was at least 1.0×10^2 CFU/ml and less than 1.0×10^6 CFU/ml) | Bacterial count (bacteria; wavelength 380 nm, irradiance 1200 μW/cm2, light intensity 200 J/cm2, photosensitizer 50 ppm): + (bacterial count was at least 1.0×10^2 CFU/ml and less than 1.0×10^6 CFU/ml) | Bacterial count (bacteria; wavelength 380 nm, irradiance 1200 μW/cm2, light intensity 400 J/cm2, photosensitizer 50 ppm): + (bacterial count was at least 1.0×10^2 CFU/ml and less than 1.0×10^6 CFU/ml) | Bacterial count (bacteria; [5]): ++ (bacterial count was 1.0×10^6 CFU/ml to 1.4×10^7 CFU/ml) | Bacterial count (bacteria; [6]): + (bacterial count was at least 1.0×10^2 CFU/ml and less than 1.0×10^6 CFU/ml) | Bacterial count (bacteria; [7]): + (bacterial count was at least 1.0×10^2 CFU/ml and less than 1.0×10^6 CFU/ml) | Bacterial count (bacteria; [8]): + (bacterial count was at least 1.0×10^2 CFU/ml and less than 1.0×10^6 CFU/ml) | Bacterial count (bacteria; [9]): − (bacterial count was at least 0 and less than 1.0×10^2 CFU/mil) | Bacterial count (bacteria; [10]): − (bacterial count was at least 0 and less than 1.0×10^2 CFU/mil) | Bacterial count (bacteria; wavelength 500 nm, irradiance 100 μW/cm2, light intensity 10 J/cm2, photosensitizer 50 ppm): ++ (bacterial count was 1.0×10^6 CFU/ml to 1.4×10^7 CFU/ml) | Bacterial count (bacteria; wavelength 500 nm, irradiance 100 μW/cm2, light intensity 30 J/cm2, photosensitizer 50 ppm): ++ (bacterial count was 1.0×10^6 CFU/ml to 1.4×10^7 CFU/ml) | Bacterial count (bacteria; wavelength 500 nm, irradiance 100 μW/cm2, light intensity 50 J/cm2, photosensitizer 50 ppm): ++ (bacterial count was 1.0×10^6 CFU/ml to 1.4×10^7 CFU/ml) | Bacterial count (bacteria; wavelength 500 nm, irradiance 100 μW/cm2, light intensity 100 J/cm2, photosensitizer 50 ppm): ++ (bacterial count was 1.0×10^6 CFU/ml to 1.4×10^7 CFU/ml) | Bacterial count (bacteria; wavelength 500 nm, irradiance 100 μW/cm2, light intensity 200 J/cm2, photosensitizer 50 ppm): + (bacterial count was at least 1.0×10^2 CFU/ml and less than 1.0×10^6 CFU/ml) | Bacterial count (bacteria; wavelength 500 nm, irradiance 100 μW/cm2, light intensity 400 J/cm2, photosensitizer 50 ppm): + (bacterial count was at least 1.0×10^2 CFU/ml and less than 1.0×10^6 CFU/ml)

Compound: Cc1cc2nc3[nH]c(=O)[nH]c(=O)c3nc2cc1C [Example 2, Lumichrome]
Bacterial count (bacteria; [5]): ++ (bacterial count was 1.0×10^6 CFU/ml to 1.4×10^7 CFU/ml) | Bacterial count (bacteria; [6]): + (bacterial count was at least 1.0×10^2 CFU/ml and less than 1.0×10^6 CFU/ml) | Bacterial count (bacteria; [7]): − (bacterial count was at least 0 and less than 1.0×10^2 CFU/mil) | Bacterial count (bacteria; [8]): − (bacterial count was at least 0 and less than 1.0×10^2 CFU/mil) | Bacterial count (bacteria; [9]): − (bacterial count was at least 0 and less than 1.0×10^2 CFU/mil) | Bacterial count (bacteria; [10]): − (bacterial count was at least 0 and less than 1.0×10^2 CFU/mil)

Compound: Cc1cc2nc3c(=O)[nH]c(=O)nc-3n(CC(O)C(O)C(O)COP(=O)([O-])O)c2cc1C.[Na+] (stereo not shown) [Example 6, Riboflavin sodium phosphate]
Bacterial count (bacteria; [5]): ++ (bacterial count was 1.0×10^6 CFU/ml to 1.4×10^7 CFU/ml) | Bacterial count (bacteria; [6]): + (bacterial count was at least 1.0×10^2 CFU/ml and less than 1.0×10^6 CFU/ml) | Bacterial count (bacteria; [7]): + (bacterial count was at least 1.0×10^2 CFU/ml and less than 1.0×10^6 CFU/ml) | Bacterial count (bacteria; [8]): + (bacterial count was at least 1.0×10^2 CFU/ml and less than 1.0×10^6 CFU/ml) | Bacterial count (bacteria; [9]): − (bacterial count was at least 0 and less than 1.0×10^2 CFU/mil) | Bacterial count (bacteria; [10]): − (bacterial count was at least 0 and less than 1.0×10^2 CFU/mil)

Compound: CCCC(=O)OCC(OC(=O)CCC)C(OC(=O)CCC)C(Cn1c2nc(=O)[nH]c(=O)c-2nc2cc(C)c(C)cc21)OC(=O)CCC (stereo not shown) [Example 7, Riboflavin butyrate]
Bacterial count (bacteria; [5]): ++ (bacterial count was 1.0×10^6 CFU/ml to 1.4×10^7 CFU/ml) | Bacterial count (bacteria; [6]): + (bacterial count was at least 1.0×10^2 CFU/ml and less than 1.0×10^6 CFU/ml) | Bacterial count (bacteria; [7]): + (bacterial count was at least 1.0×10^2 CFU/ml and less than 1.0×10^6 CFU/ml) | Bacterial count (bacteria; [8]): + (bacterial count was at least 1.0×10^2 CFU/ml and less than 1.0×10^6 CFU/ml) | Bacterial count (bacteria; [9]): − (bacterial count was at least 0 and less than 1.0×10^2 CFU/mil) | Bacterial count (bacteria; [10]): − (bacterial count was at least 0 and less than 1.0×10^2 CFU/mil)

Compound: CC(O)CN(CC(C)O)CC(C)O (stereo not shown) [Triisopropanolamine]
Evaluation of pH drop supression [1]: A (key: A: pH change rate of 15% or lower; B: pH change rate higher than 15% and at most 20%; C: pH change rate higher than 20% and at most 30%; D: pH change rate higher than 30%) | pH change [1]: 0.8 | pH change rate (%) [1]: 9.3%

Compound: CC(C)(C)c1ccc(OP(Oc2ccc(C(C)(C)C)cc2C(C)(C)C)Oc2ccc(C(C)(C)C)cc2C(C)(C)C)c(C(C)(C)C)c1 [Tris(2,4-di-tert-butylphenyl) phosphite]
Evaluation of pH drop supression [1]: A (key: A: pH change rate of 15% or lower; B: pH change rate higher than 15% and at most 20%; C: pH change rate higher than 20% and at most 30%; D: pH change rate higher than 30%) | pH change [1]: 0.4 | pH change rate (%) [1]: 4.7%
